Results published in patent publication US20030022821A1, “Bioactive peptides” (priority 1998, published 2003).
In brackets after ≈: the same amount, converted by molar mass. Entries after “also recorded” stand apart in the source; their conditions may differ. Read-outs that look alike come from different tables or passages of the source. Square brackets hold non-standard residues; d marks the D form. Ends that are not written are not given here. Peptide text beside a SMILES is read from it. * marks the point of attachment. Bip = N[C@@H](Cc1ccc(-c2ccccc2)cc1)C(=O)O; Acm = CC(=O)NC*

Key:
[1] = test system: Escherichia coli ATCC 25922; assay type: cell-based
Outline: (§1)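 Mid-logarithmic cultures (raised in 2% peptone water) were diluted to 2×10^6 CFU/ml and exposed to peptide dilutions in 1% Bacto Peptone water by microdilution to find the MIC. Triplicate assays; HPLC checked actual peptide concentration.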

[2] = test system: Staphylococcus aureus ATCC 25923; assay type: cell-based
Outline: as §1

human red blood cells = test: Hemolytic assay; assay type: cell-based; settings: red cells of human
[3] = test system: Meth A cells (murine sarcoma cell line); test: Cytotoxicity on Meth A cells, MTT method; settings: 4 h
Description: Peptide solutions (0.1 ml) were added and the plates incubated at 37° C. for 30 minutes, 4 hours or 24 hours. The cytotoxicity was measured using the MTT method (Mosmann et al., J. Immunol. (1986) 136, 2348-2357).
Cells in the growth phase were harvested and washed in fresh medium and injected subcutaneously into the abdominal region of the mice.
The cytotoxic effect of the peptides on different murine and human tumor cells were measured using the MTT method (Mosmann et al., J. Immunol. (1986) 136, 2348-2357). MTT is a soluble tetrazolium salt yielding a yellow solution when prepared in media or salt solutions lacking phenol red. Dissolved MTT is converted to an insoluble purple formazan by cleavage of the tetrazolium ring by dehydrogenase enzymes. This water insoluble formazan can be solubilized using isopropanol or other solvents and the dissolved material is measured spectrophotometrically. The absorbance was measured as a function of concentration of converted dye.
Cells were maintained in […] medium containing 10% FBS, 1% L-glutamine and 0.1% penicillin and streptomycin. Cells to be used in the assay were grown to confluency, trypsinated and split to single cell suspension, counted and centrifuged at 1500 rpm for 10 min. […][…] of cell suspension was transferred to each well on a 96-well microtiter plate. The cells were stimulated by adding […] of various concentrations of peptides diluted with assay medium to each well. The final concentrations of peptide were for example: 5, 10, 20, 40, 60, 80, 100, and 200 mg/ml. […] As a negative control only medium was added to the cells, and as a positive control (100% killing) 1% triton X-100 was added. Following an incubation period of 4 h., 20 ml MTT dissolved in PBS at a concentration of 5 mg/ml was added to each well, and the plate was incubated further for 2 h. 130 ml of the supernatant were then removed and […] acid alcohol (0.04-0.1 N HCl in isopropanol) added to each well to dissolve the dark blue crystals. The plate was placed on a shaker for 1 h and read spectrophotometrically at 590 nm in a microtiterplate reader using the Softmaxâ program.

normal fibroblasts = assay type: cell-based
[4] = test system: MRSA (methicillin resistant S. aureus); assay type: cell-based
Description: The bacterial strains used were: Escherichia coli ATCC 25922 and Staphylococcus aureus ATCC 25923. All strains were stored at −70° C. The bacteria were grown in 2% Bacto Peptone water (Difco 1807-17-4). All tests were performed with bacteria in mid-logarithmic growth phase. Determination of the minimum inhibitory concentration (MIC) of the peptides for bacterial strains were performed in 1% Bacto Peptone water. A standard microdilution technique with an inoculum of 2×10^6 CFU/ml was used. All assays were performed in triplets. Since the peptides are positively charged and therefore could adhere to the plastic wells, we controlled the actual concentration of the peptides in the solution by HPLC. There was no difference between the concentration of the peptides before or after adding the solution to the plastic wells.
Table 13 below gives the antibacterial activity and toxicity data for some preferred peptides of the invention. MRSA is methicillin resistant S. aureus and MRSE is methicillin resistant S. epidermidis.

| Compound | Mic E-coli ([1]; ATCC 25922) | Mic S. Aureus ([2]; ATCC 25923) | EC50 (human red blood cells) | IC50 [3] | IC50 (normal fibroblasts) | further results |
| --- | --- | --- | --- | --- | --- | --- |
| PAIRKAFRWAIRMLKKAA-OH [LFB 14-31A2,6, 10, 17F7I3, 11K16L14R4] | 2.5 µM | 5 µM | 413 µM | 16 µM | 45 µM |  |
| PAARKAFRWAWRMLKKAA-OH [LFB 14-31A2,3,6, 10, 17F7K16L14R4] | 15 µM | 10 µM | > 463 µM | 24.1 µM | 190 µM |  |
| PAWRKAFRWAIRMLKKAA-OH [LFB 14-31A2,6, 10, 17F7I11K16L14R4] |  | <1 µM |  | 6 µM | 15 µM | Mic E-coli ([1]; Table 17): 2/5 |
| PAWRKAFRAAARMLKKAA-OH [LFB 14-31A2,6,9, 10, 11, 17F7K16L14R4] | 30 µM | 30 µM | > 489 µM | 110 µM | > 489 µM |  |
| CSCC[C@H](NC(=O)[C@H](CCCNC(=N)N)NC(=O)[C@H](Cc1ccc(-c2ccccc2)cc1)NC(=O)[C@H](CCC(N)=O)NC(=O)[C@H](Cc1ccc(-c2ccccc2)cc1)NC(=O)[C@H](CCCNC(=N)N)NC(=O)[C@H](CCCNC(=N)N)NC(=O)[C@H](CSCNC(C)=O)NC(=O)[C@H](CCCCN)NC(=O)[C@@H](N)Cc1ccccc1)C(=O)N[C@@H](CCCCN)C(=O)N[C@@H](CCCCN)C(=O)N[C@@H](CC(C)C)C(=O)NCC(=O)N[C@@H](C)C(=O)O [LFB Bip6, 8] |  |  |  |  |  | MIC E. coli ([1]; ATCC 25922): 10 µg/mL (≈ 4.67 µM); MIC E. coli ([1]; Table 13, 8): ≧12.5 μg/ml; also recorded: ≧5.8 μM; MIC S. aureus ([2]; Table 13, 8): 3.0 µg/mL (≈ 1.4 µM); MIC MRSA ([4]; Table 13, 8): 2.5 µg/mL; MIC MRSA ([4]; methicillin resistant): 1.2 µM |
| PAWRKAFRWAWRMLKKAA-OH [LFB 14-31A2,6, 10, 17F7K16L14R4] |  | 2 µM | 110 µM | 6.6 µM | 17 µM | Mic E-coli ([1]; Table 17): 2/4 |
| PAWRKAARWAWRMLKKAA-OH [LFB 14-31A2,6, 10, 17F7K16L14R4 F7 → A7] | 15 µM | 10 µM | > 455 µM | 34.6 µM | 289 µM |  |
| PAWRKAFRIAWRMLKKAA-OH [LFB 14-31A2,6, 10, 17F7I9K16L14R4] | 5 µM | <1 µM |  | 12 µM | 26 µM |  |
| CC(=O)NCSC[C@H](NC(=O)[C@H](CCCCN)NC(=O)[C@@H](N)Cc1ccccc1)C(=O)N[C@@H](Cc1c[nH]c2ccccc12)C(=O)N[C@@H](CCCNC(=N)N)C(=O)N[C@@H](Cc1c[nH]c2ccccc12)C(=O)N[C@@H](CCC(N)=O)C(=O)N[C@@H](Cc1c[nH]c2ccccc12)C(=O)N[C@@H](CCCNC(=N)N)C(=O)N[C@@H](Cc1c[nH]c2ccccc12)C(=O)N[C@@H](CCCCN)C(=O)N[C@@H](CCCCN)C(=O)N[C@@H](CC(C)C)C(=O)NCC(=O)N[C@@H](C)C(=O)O [LFB W4, 10, H2N-Phe-Lys-Cys-Trp-Arg-Trp-Gln-Trp-Arg-Trp-Lys-Lys-Leu-Gly-Ala-COOH] (H-FKC(Acm)WRWQWRWKKLGA-OH) |  |  |  |  |  | MIC E. coli ([1]; ATCC 25922): 5 µg/mL (≈ 2.32 µM); MIC E. coli ([1]; Table 6): 5 µg/mL (≈ 2.32 µM); MIC S. aureus ([2]; ATCC 25923): 10 µg/mL (≈ 4.65 µM); MIC S. aureus ([2]; Table 6, unit assumed): 10 µg/mL (≈ 4.65 µM); % Hemolysis 10 μg/ml (human red blood cells): 4.45%; % Hemolysis 100 μg/ml (human red blood cells): 27.8%; Meth A IC50 [3]: 500 µg/mL |
| PAIRKAFRIAIRMLKKAA-OH | 2.5 µM | 10 µM | > 487 µM | 47 µM | 280 µM |  |
| CSCC[C@H](NC(=O)[C@H](CCCNC(=N)N)NC(=O)[C@H](C)NC(=O)[C@H](CCC(N)=O)NC(=O)[C@H](Cc1c[nH]c2ccccc12)NC(=O)[C@H](CCCNC(=N)N)NC(=O)[C@H](CCCNC(=N)N)NC(=O)[C@H](CSCNC(C)=O)NC(=O)[C@H](CCCCN)NC(=O)[C@@H](N)Cc1ccccc1)C(=O)N[C@@H](CCCCN)C(=O)N[C@@H](CCCCN)C(=O)N[C@@H](CC(C)C)C(=O)NCC(=O)N[C@@H](C)C(=O)O [LFB A8] (H-FKC(Acm)RRWQARMKKLGA-OH; N-terminus assumed) |  |  |  |  |  | MIC E. coli ([1]; ATCC 25922): >200 µg/mL; MIC S. aureus ([2]; ATCC 25923): >200 µg/mL; % Hemolysis 10 μg/ml (human red blood cells): 2.8%; % Hemolysis 100 μg/ml (human red blood cells): 3.45%; MethA IC50 [3]: 500 µg/mL |
| RRWQWRMKKL-OH [LFB 20-29] |  |  |  |  |  | MIC E. coli ([1]; ATCC 25922): 60 µg/mL; MIC S. aureus ([2]; ATCC 25923): >100 µg/mL; % Hemolysis 10 μg/ml (human red blood cells): 1.75%; % Hemolysis 100 μg/ml (human red blood cells): 2.74%; MethA IC50 [3]: 500 µg/mL |
| PAIRKAFRWAWRMLKKAA-OH [LFB 14-31A2,6, 10, 17F7I3K16L14R4] |  |  | 323 µM | 9 µM | 20 µM | Mic E-coli ([1]; Table 17): 2/4; Mic S. Aureus ([2]; Table 17): 2/4 |
| PAWRKAFRIAIRMLKKAA-OH [LFB 14-31A2,6, 10, 17F7I9, 11K16L14R4] |  |  |  | 22 µM | 26 µM |  |
| PAWRKAFRWAKRMLKKAA-OH [LFB 14-31A2,6, 10, 17F7K11, 16L14R4] | 5 µM | <2.5 µM | > 451 µM | 7.9 µM | 30.7 µM |  |
| PAWRKAFRAAWRMLKKAA-OH [LFB 14-31A2,6,9, 10, 17F7K16L14R4] | 10 µM | 5 µM | 382 µM | 16.2 µM | 46.3 µM |  |
| PAWRKAFRWAARMLKKAA-OH [LFB 14-31A2,6, 10, 11, 17F7K16L14R4] | 10 µM | >2.5 µM | 278 µM | 11.1 µM | 46.3 µM |  |
| PAWRKAFRKAWRMLKKAA-OH [LFB 14-31A2,6, 10, 17F7K9, 16L14R4] | 30 µM | 10 µM | > 451 µM | 13.5 µM | 58.7 µM |  |
| PAWRKAFRKAKRMLKKAA-OH [LFB 14-31A2,6, 10, 17F7K9, 11, 16L14R4] |  |  | > 463 µM | > 300 µM | > 463 µM |  |
| CSCC[C@H](NC(=O)[C@H](CCCNC(=N)N)NC(=O)[C@H](Cc1c(S(=O)(=O)c2c(C)c(C)c3c(c2C)CCC(C)(C)O3)[nH]c2ccccc12)NC(=O)[C@H](CCC(N)=O)NC(=O)[C@H](Cc1c[nH]c2ccccc12)NC(=O)[C@H](CCCNC(=N)N)NC(=O)[C@H](CCCNC(=N)N)NC(=O)[C@H](CSCNC(C)=O)NC(=O)[C@H](CCCCN)NC(=O)[C@@H](N)Cc1ccccc1)C(=O)N[C@@H](CCCCN)C(=O)N[C@@H](CCCCN)C(=O)N[C@@H](CC(C)C)C(=O)NCC(=O)N[C@@H](C)C(=O)O [LFB PMC8] |  |  |  |  |  | MIC E. coli ([1]; ATCC 25922): 18 µg/mL (≈ 7.72 µM); MIC S. aureus ([2]; ATCC 25923): 10 µg/mL (≈ 4.29 µM); % Hemolysis 10 μg/ml (human red blood cells): 3.6%; % Hemolysis 100 μg/ml (human red blood cells): 9.79%; MethA IC50 [3]: 150 µg/mL |
| CSCC[C@H](NC(=O)[C@H](CCCNC(=N)N)NC(=O)[C@H](Cc1c[nH]c2ccccc12)NC(=O)[C@H](CCC(N)=O)NC(=O)[C@H](Cc1c[nH]c2ccccc12)NC(=O)[C@H](CCCNC(=N)N)NC(=O)[C@H](CCCNC(=N)N)NC(=O)[C@H](Cc1ccc(-c2ccccc2)cc1)NC(=O)[C@H](CCCCN)NC(=O)[C@@H](N)Cc1ccccc1)C(=O)N[C@@H](CCCCN)C(=O)N[C@@H](CCCCN)C(=O)N[C@@H](CC(C)C)C(=O)NCC(=O)N[C@@H](C)C(=O)O [LFB Bip3] (H-FK[Bip]RRWQWRMKKLGA-OH; N-terminus assumed) |  |  |  |  |  | MIC E. coli ([1]; Table 13, listed as LPB Bip 3): 12.5 µg/mL (≈ 5.91 µM); MIC MRSA ([4]; Table 13, listed as LPB Bip 3): 2.5 µg/mL; MIC MRSA ([4]; methicillin resistant): 1.2 µM |
| PAKRKAFRWAWRMLKKAA-OH [LFB 14-31A2,6, 10, 17F7K3, 16L14R4] |  |  | > 451 µM | 230 µM | 230 µM |  |
| PAIRKAFRIAWRMLKKAA-OH [LFB 14-31A2,6, 10, 17F7I3, 9K16L14R4] | 5 µM | 5 µM | > 470 µM | 36 µM | 108 µM |  |
